Source: patent US20240207258A1, “HETEROCYCLIC PDK1 INHIBITORS FOR USE TO TREAT CANCER” (Viracta Therapeutics, Inc., priority 2015, published 2024)

Columns and labels:
[1] = tested on: SU-DHL-4; assay: MTS cell proliferation assay, SU-DHL-4; type: cell-based; details: Homo sapiens; SU-DHL-4, 72 hr
Description: (§1) Cell proliferation was measured using the CellTiter 96 Aqueous Non-Radioactive Cell Proliferation Assay (Promega). The CellTiter 96® AQueous Assay is composed of solutions of a tetrazolium compound [3-(4,5-dimethylthiazol-2-yl)-5-(3-carboxymethoxyphenyl)-2-(4-sulfophenyl)-2H-tetrazolium, inner salt; MTS] and an electron coupling reagent (phenazine methosulfate) PMS. MTS is bioreduced by cells into a formazan product that is soluble in tissue culture medium. The absorbance of the formazan product at 490 nm can be measured directly from assay plates without additional processing. The quantity of formazan product as measured by the amount of 490 nm absorbance is directly proportional to the number of living cells in culture. Cells were seeded into 96-well or 384-well clear plates in a volume of 200 μL (96-well) or 50 μL (384-well) at optimized densities ranging from 1,000 to 40,000 cells per well for 96-well plates or 1,200 to 25,000 cells per well for 384-well plates depending on cell-line. After 4-6 hr recovery, serially diluted compounds in DMSO were added to the cells using (0.1% v/v final DMSO concentration). Cells were then grown at 37° C. in a humidified incubator with 5% CO2 for 72 hr. A 20:1 [3-(4,5-dimethylthiazol-2-yl)-5-(3-carboxymethoxyphenyl)-2-(4-sulfophenyl)-2H-tetrazolium](MTS):phenazine methosulfate (PMS) solution in DPBS was made immediately before use, added to each well, and cells were incubated for 1.5 hr at 37° C. The absorbance at 490 nm was then measured using a platereader. Absorbance values were normalized as percent of control (cells incubated in the presence of 0.1% v/v DMSO). Sigmoidal dose-response curves were plotted using log(inhibitor) vs. response—Variable slope (four parameters) model with a top value constrained to 100% (GraphPad Prism version 6.00 for Windows, GraphPad Software, La Jolla California USA). […] Curves for compounds that reached a plateau were matched exactly to the measurement points. […]

[2] = tested on: pRSK2; assay: Western blot, RSK2 phosphorylation in KG-1 cells; type: cell-based; details: Homo sapiens; KG-1, 100 nM; read-out: inhibition of pRSK2 levels
Description: For phosphoprotein analyses, cells were seeded into 10 cm petri dishes (10×10^6 cells/dish) in media supplemented with 10% FBS and penicillin/streptomycin. After cells recovered for 1 hr at 37° C., compounds were added in DMSO (0.1% final) and incubated for 4 or 24 hr at 37° C. Cells were then harvested by centrifugation and washed with cold PBS. Cell pellets were resuspended in cell extraction buffer (Invitrogen) supplemented with 2×Halt™ protease and phosphatase inhibitor cocktail (Thermo Scientific), 2 mM sodium orthovanadate, 10 mM EDTA and 4 mM PMSF. Samples were lysed by sonication and incubated on ice for 30 min. Cell debris was removed by centrifugation and protein concentrations were determined using the BCA Protein Assay Kit (Pierce). The clarified lysate was diluted in LDS sample buffer with reducing agent (Life Technologies). After heating to 70° C. samples were cooled and loaded onto 4-12% Bis-Tris gels (Life Technologies) at 50 μg/well. Gels were run at 110 V and proteins were transferred to a PVDF membrane. Membranes were blocked in TBS blocking buffer (Li-Cor Biosciences) for 1 hr. Primary antibodies (Cell Signaling, Sant Cruz Biotechnology) were added (1:1,000 dilution) in blocking buffer with 0.1% Tween-20 and 1:20,000 dilution of β-actin antibody and incubated for 14 hr at 4° C. […] Bands were quantitated using ImageJ.

[3] = tested on: MOLM-16; assay: MTS cell proliferation assay, MOLM-16; type: cell-based; details: Homo sapiens, MOLM16; MOLM-16, 72 hr
Description: as §1

[4] = tested on: KG1; assay: MTS cell proliferation assay, KG1; type: cell-based; details: Homo sapiens, KG-1; KG1, 72 hr
Description: as §1

[5] = target: T1, Full-length phosphorylated PDK1 (Homo sapiens, UniProt O15530); assay: FRET-based PIF-tide binding assay; details: 10 nM compound where stated, FIG. 13D
T1 sequence (O15530 1-556): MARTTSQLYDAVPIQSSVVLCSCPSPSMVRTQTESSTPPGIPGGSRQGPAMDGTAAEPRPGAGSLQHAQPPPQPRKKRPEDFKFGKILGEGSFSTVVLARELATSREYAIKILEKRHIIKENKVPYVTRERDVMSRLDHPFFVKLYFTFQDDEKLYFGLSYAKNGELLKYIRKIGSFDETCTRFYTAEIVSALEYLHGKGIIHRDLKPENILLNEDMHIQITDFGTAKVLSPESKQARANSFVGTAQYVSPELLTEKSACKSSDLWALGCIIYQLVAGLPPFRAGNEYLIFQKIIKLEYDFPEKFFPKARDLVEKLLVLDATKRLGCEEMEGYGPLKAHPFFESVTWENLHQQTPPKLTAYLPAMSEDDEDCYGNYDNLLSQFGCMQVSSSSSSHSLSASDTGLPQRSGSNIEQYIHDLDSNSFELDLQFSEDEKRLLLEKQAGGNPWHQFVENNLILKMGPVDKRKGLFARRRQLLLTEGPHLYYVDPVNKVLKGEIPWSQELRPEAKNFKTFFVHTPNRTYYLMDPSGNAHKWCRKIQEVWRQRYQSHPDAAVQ

[6] = tested on: A20; assay: MTS cell proliferation assay, A20; type: cell-based, murine; details: Mus musculus; A20, 72 hr
Description: (§2) Cell proliferation was measured using the CellTiter 96 Aqueous Non-Radioactive Cell Proliferation Assay (Promega). The CellTiter 96® AQueous Assay is composed of solutions of a tetrazolium compound [3-(4,5-dimethylthiazol-2-yl)-5-(3-carboxymethoxyphenyl)-2-(4-sulfophenyl)-2H-tetrazolium, inner salt; MTS] and an electron coupling reagent (phenazine methosulfate) PMS. MTS is bioreduced by cells into a formazan product that is soluble in tissue culture medium. The absorbance of the formazan product at 490 nm can be measured directly from assay plates without additional processing. The quantity of formazan product as measured by the amount of 490 nm absorbance is directly proportional to the number of living cells in culture. Cells were seeded into 96-well or 384-well clear plates in a volume of 200 μL (96-well) or 50 μL (384-well) at optimized densities ranging from 1,000 to 40,000 cells per well for 96-well plates or 1,200 to 25,000 cells per well for 384-well plates depending on cell-line. After 4-6 hr recovery, serially diluted compounds in DMSO were added to the cells using (0.1% v/v final DMSO concentration). Cells were then grown at 37° C. in a humidified incubator with 5% CO2 for 72 hr. A 20:1 [3-(4,5-dimethylthiazol-2-yl)-5-(3-carboxymethoxyphenyl)-2-(4-sulfophenyl)-2H-tetrazolium](MTS):phenazine methosulfate (PMS) solution in DPBS was made immediately before use, added to each well, and cells were incubated for 1.5 hr at 37° C. The absorbance at 490 nm was then measured using a platereader. Absorbance values were normalized as percent of control (cells incubated in the presence of 0.1% v/v DMSO). Sigmoidal dose-response curves were plotted using log(inhibitor) vs. response—Variable slope (four parameters) model with a top value constrained to 100% (GraphPad Prism version 6.00 for Windows, GraphPad Software, La Jolla California USA). […] Curves for compounds that reached a plateau were matched exactly to the measurement points. […] To determine potential of compounds of the invention to affect viability of hematological cancers, cell lines representing various tumor types were selected and tested. Human cell lines tested were: MOLM-13 (acute myeloid leukemia (AML)), MV4-11 (AML), U-2932 (ABC-diffuse large B cell lymphoma), U-937 (histiocytic lymphoma), U-266 (multiple myeloma), RPMI-8226 (multiple myeloma), CMK (megakaryoblastic cell line), SU-DHL-4 (GCB-diffuse large B cell lymphoma), KG1 (AML), Mec-1 (chronic B-cell leukemia), MOLM-16 (AML), Jeko (B-cell lymphoma), WSU-DLCL2 (B-cell lymphoma), JJN3 (plasma cell leukemia), SU-DHL-6 (GCB-diffuse large B cell lymphoma), and Z-138 (mantle cell lymphoma). In addition, two murine cell lines were tested: A20 […].

[7] = tested on: WSU-DLCL2; assay: MTS cell proliferation assay, WSU-DLCL2; type: cell-based; details: Homo sapiens, WSUDLCL2; WSU-DLCL2, 72 hr
Description: as §1

[8] = tested on: Molm-13; assay: MTS cell proliferation assay, Molm-13; type: cell-based; details: Homo sapiens; Molm-13, 72 hr
Description: as §2

SMILES | EC50 [1] | inhibition at 0.1 µM [2] | EC50 [3] | EC50 [4] | FRET between PDK1 and PIF-tide [5] | EC50 [6] | EC50 [7] | EC50 [8]
C[C@H](NC(=O)c1nc(C#N)cnc1NCc1ccc(-c2cnc3[nH]nc(N)c3n2)cc1)c1ccc(F)c(F)c1 [Compound 1, 3-[4-(3-Amino-1H-pyrazolo[3,4-b]pyrazin-5-yl)-benzylamino]-6-cyano-pyrazine-2-carboxylic acid [1-(3,4-difluoro-phenyl)-ethyl]-amide] | 313 nM | > 80% | 248 nM | 175 nM | near complete inhibition | 156 nM | 543 nM | 6 nM
CNc1n[nH]c2ncc(-c3ccc(CNc4ncc(C#N)nc4C(=O)N[C@@H](C)c4ccc(F)c(F)c4)cc3)cc12 [Compound 2, 6-Cyano-3-[4-(3-methylamino-1H-pyrazolo[3,4-b]pyridin-5-yl)-benzylamino]-pyrazine-2-carboxylic acid [1-(3,4-difluoro-phenyl)-ethyl]-amide] | 186 nM | – | 227 nM | 195 nM | near complete inhibition | 114 nM | 354 nM | 3 nM
